# Laboratory results reported in PubChem BioAssay AID1963846 (Molecular Pharmacology Branch, DTP, NCI, 2024).
# Test system: 454973-116-R2-J3-PDC complex spheroid viability
# Assay: Anticancer human tumor 454973-116-R2-J3-PDC patient-derived pancreatic carcinoma cell line growth inhibition [POLQ]
# Conditions: for IC50: curve of first compound; for viability, T/C: stronger effect = lower value
# Procedure: Multicellular complex tumor spheroid response to Polymerase (POL) inhibitors (novobiocin, ART-558, RP6685) in combination with a variety of drugs and investigational agents in selected tumor cell lines
# The POL inhibitors (novobiocin, ART-558, and RP6685) were evaluated both individually and in combination with standard of care and investigational anticancer small molecules within a complex spheroid model of solid tumors. . Complex spheroids include a stromal component modeled by human endothelial cells (HUVEC) and fibroblasts modeled by human mesenchymal stem cells (MSCs). The concentration ranges selected for each drug and investigational agent were based upon clinically achievable concentrations if the clinical Cmax of the agent was known.
# Compounds. The drugs and investigational agents: novobiocin (NSC847541), ART-558 (NSC835418), RP-6685 (NSC848927), peposertib (NSC802822), ceralasertib (NSC780249), elimusertib (NSC800525), camonsertib (NSC841442), AZD-1390 (NSC803789), olaparib (NSC753686), talazoparib (NSC767125), rucaparib (NSC756644), sotorasib (NSC818433), MRTX-1133 (NSC836407), SN-38 (NSC673596), topotecan (NSC609699), epotoside (NSC141540), doxorubicin (NSC123127), gemcitabine (NSC613327), 5-fluorouracil (NSC19893), paclitaxel (NSC125973), vemurafenib (NSC761431), MSA-2 (NSC828583), SN-011 (NSC837082), adavosertib (NSC754352), prexasertib (NSC758257), carboplatin (NSC241240) and oxaliplatin (NSC266046), were obtained from the National Cancer Institute (NCI) Developmental Therapeutics Program Chemical Repository (21). The FDA-approved anticancer drug set is available from the Developmental Therapeutics Program at https://dtp.cancer.gov/organization/dscb/obtaining/. […] The stock solutions were prepared in dimethyl sulfoxide (DMSO, Sigma-Aldrich, St. Louis, MO, cat. D2650), except for the platinum compounds which were prepared in saline (Quality Biological, Gaithersburg, MD, cat. 114-055-101), at 800-fold the tested concentration and stored at -70 degrees C prior to their use. All drugs and investigational agents were tested over a range starting from a high concentration at or near the clinical Cmax and decreasing in half-log increments. If the clinical Cmax for an agent had not been determined, the highest concentration tested was 10 microM, except for SN-38, which was tested at a high concentration of 1 microM.
# Cell Culture. All cells were maintained in an incubator at 37 degrees C and 5% CO2 with 95% humidity. The PDC lines were cultured according to standard operating procedures established by the NCI PDMR (https://pdmr.cancer.gov). Table 3 of the manuscript, lists the cell lines along with the number of the three cell types plated to form the mct-spheroids and media for tumor cell growth. After thawing, all PDC lines, except 997537-175-T-J1-PDC and 415267-285-R-J2-PDC, were cultured in Matrigel-coated flasks prepared with a working solution of 1X Ham's F-12 nutrient mix, without supplementation (Thermo Fisher Scientific, cat. 11765054), 100 U/mL penicillin-streptomycin (Thermo Fisher Scientific, cat. 15140122), and 2.5% Matrigel (Corning Inc., Corning, NY, cat. 354248) for the first three passages. The two PDC lines 997537-175-T-J1-PDC and 415267-285-R-J2-PDC were cultured on uncoated flasks. The 857933-349-R-J2-PDC line was cultured in 6C/Colon 1B media containing advanced DMEM/F-12 (Thermo Fisher Scientific, cat. 12634028), 10 mM HEPES (Thermo Fisher Scientific, cat. 15630080), 1X GlutaMAX supplement (Thermo Fisher Scientific, cat. 35050061), 0.1 mg/mL primocin (InvivoGen, San Diego, CA, cat. ant-pm-2), 10% defined fetal bovine serum, heat inactivated (HyClone Laboratories Inc., Logan, UT, cat. SH30070.03HI), 50% L-WRN conditioned media (ATCC, cat. CRL-3276), 1.25 mM N-Acetyl-L-cysteine (Sigma-Aldrich, cat. A9165), 10 mM nicotinamide (Sigma-Aldrich, cat. N0636), 1X B-27 supplement (Thermo Fisher Scientific, cat. 17504044), 1X N-2 supplement (Thermo Fisher Scientific, cat. […]
# 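Note: spheroids exposed to drugs for seven days before measurement.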
# 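Throughout, for viability, T/C: percent viability relative to DMSO vehicle control wells taken as 100%.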
smiles,measurement,setting,value
O=C(Nc1ccc(O)c(NS(=O)(=O)c2ccc(F)cc2)c1)c1ccc(-c2ccccc2)cc1 + Cc1cccc(N(C)C(=O)C2C(O)CCN2c2nc(C)cc(C(F)(F)F)c2C#N)c1,IC50,second compound 0.0316 µM,> 10 µM
same,IC50,second compound 0.1 µM,> 10 µM
same,IC50,second compound 0.316 µM,> 10 µM
same,IC50,second compound 1 µM,> 10 µM
same,IC50,second compound 3.16 µM,> 10 µM
same,IC50,second compound 10 µM,> 10 µM
same,"viability, T/C","second compound 0.0316 µM, first compound 0.0316 µM",98.1%
same,"viability, T/C","second compound 0.0316 µM, first compound 0.1 µM",108%
same,"viability, T/C","second compound 0.0316 µM, first compound 0.316 µM",87.1%
same,"viability, T/C","second compound 0.0316 µM, first compound 1 µM",100%
same,"viability, T/C","second compound 0.0316 µM, first compound 3.16 µM",114%
same,"viability, T/C","second compound 0.0316 µM, first compound 10 µM",82.2%
same,"viability, T/C","second compound 0.1 µM, first compound 0.0316 µM",96.8%
same,"viability, T/C","second compound 0.1 µM, first compound 0.1 µM",97.2%
same,"viability, T/C","second compound 0.1 µM, first compound 0.316 µM",101%
same,"viability, T/C","second compound 0.1 µM, first compound 1 µM",111%
same,"viability, T/C","second compound 0.1 µM, first compound 3.16 µM",102%
same,"viability, T/C","second compound 0.1 µM, first compound 10 µM",85.1%
same,"viability, T/C","second compound 0.316 µM, first compound 0.0316 µM",105%
same,"viability, T/C","second compound 0.316 µM, first compound 0.1 µM",92.7%
same,"viability, T/C","second compound 0.316 µM, first compound 0.316 µM",102%
same,"viability, T/C","second compound 0.316 µM, first compound 1 µM",106%
same,"viability, T/C","second compound 0.316 µM, first compound 3.16 µM",110%
same,"viability, T/C","second compound 0.316 µM, first compound 10 µM",84.9%
same,"viability, T/C","second compound 1 µM, first compound 0.0316 µM",98.9%
same,"viability, T/C","second compound 1 µM, first compound 0.1 µM",98.1%
same,"viability, T/C","second compound 1 µM, first compound 0.316 µM",100%
same,"viability, T/C","second compound 1 µM, first compound 1 µM",103%
same,"viability, T/C","second compound 1 µM, first compound 3.16 µM",108%
same,"viability, T/C","second compound 1 µM, first compound 10 µM",85%
same,"viability, T/C","second compound 3.16 µM, first compound 0.0316 µM",107%
same,"viability, T/C","second compound 3.16 µM, first compound 0.1 µM",98.2%
same,"viability, T/C","second compound 3.16 µM, first compound 0.316 µM",98.4%
same,"viability, T/C","second compound 3.16 µM, first compound 1 µM",103%
same,"viability, T/C","second compound 3.16 µM, first compound 3.16 µM",112%
same,"viability, T/C","second compound 3.16 µM, first compound 10 µM",81.4%
same,"viability, T/C","second compound 10 µM, first compound 0.0316 µM",102%
same,"viability, T/C","second compound 10 µM, first compound 0.1 µM",105%
same,"viability, T/C","second compound 10 µM, first compound 0.316 µM",104%
same,"viability, T/C","second compound 10 µM, first compound 1 µM",105%
same,"viability, T/C","second compound 10 µM, first compound 3.16 µM",95.8%
same,"viability, T/C","second compound 10 µM, first compound 10 µM",74.3%
CC(=O)O[C@H]1C(=O)[C@@]2(C)[C@H]([C@H](OC(=O)c3ccccc3)[C@]3(O)C[C@H](OC(=O)[C@H](O)[C@@H](NC(=O)c4ccccc4)c4ccccc4)C(C)=C1C3(C)C)[C@]1(OC(C)=O)CO[C@@H]1C[C@@H]2O + Nc1ccc(C#CCN(C(=O)Cc2ncc(C(F)(F)F)cc2C(F)(F)F)c2ccc(F)cc2)nn1,IC50,second compound 0.0316 µM,< 0.00949 µM
same,IC50,second compound 0.1 µM,< 0.00949 µM
same,IC50,second compound 0.316 µM,< 0.00949 µM
same,IC50,second compound 1 µM,< 0.00949 µM
same,IC50,second compound 3.16 µM,< 0.00949 µM
same,IC50,second compound 10 µM,< 0.00949 µM
same,"viability, T/C","second compound 0.0316 µM, first compound 0.00949 µM",6.03%
same,"viability, T/C","second compound 0.0316 µM, first compound 0.03 µM",5.37%
same,"viability, T/C","second compound 0.0316 µM, first compound 0.0949 µM",4.33%
same,"viability, T/C","second compound 0.0316 µM, first compound 0.3 µM",4.12%
same,"viability, T/C","second compound 0.0316 µM, first compound 0.949 µM",5.17%
same,"viability, T/C","second compound 0.0316 µM, first compound 3 µM",4.92%
same,"viability, T/C","second compound 0.1 µM, first compound 0.00949 µM",6.43%
same,"viability, T/C","second compound 0.1 µM, first compound 0.03 µM",5.72%
same,"viability, T/C","second compound 0.1 µM, first compound 0.0949 µM",5.37%
same,"viability, T/C","second compound 0.1 µM, first compound 0.3 µM",3.72%
same,"viability, T/C","second compound 0.1 µM, first compound 0.949 µM",4.36%
same,"viability, T/C","second compound 0.1 µM, first compound 3 µM",5.13%
same,"viability, T/C","second compound 0.316 µM, first compound 0.00949 µM",6.26%
same,"viability, T/C","second compound 0.316 µM, first compound 0.03 µM",5.71%
same,"viability, T/C","second compound 0.316 µM, first compound 0.0949 µM",3.79%
same,"viability, T/C","second compound 0.316 µM, first compound 0.3 µM",4.86%
same,"viability, T/C","second compound 0.316 µM, first compound 0.949 µM",4.32%
same,"viability, T/C","second compound 0.316 µM, first compound 3 µM",5.03%
same,"viability, T/C","second compound 1 µM, first compound 0.00949 µM",6.64%
same,"viability, T/C","second compound 1 µM, first compound 0.03 µM",7.67%
same,"viability, T/C","second compound 1 µM, first compound 0.0949 µM",5.72%
same,"viability, T/C","second compound 1 µM, first compound 0.3 µM",4.36%
same,"viability, T/C","second compound 1 µM, first compound 0.949 µM",4.31%
same,"viability, T/C","second compound 1 µM, first compound 3 µM",4.88%
same,"viability, T/C","second compound 3.16 µM, first compound 0.00949 µM",6.84%
same,"viability, T/C","second compound 3.16 µM, first compound 0.03 µM",4.76%
same,"viability, T/C","second compound 3.16 µM, first compound 0.0949 µM",4.25%
same,"viability, T/C","second compound 3.16 µM, first compound 0.3 µM",4.05%
same,"viability, T/C","second compound 3.16 µM, first compound 0.949 µM",5.59%
same,"viability, T/C","second compound 3.16 µM, first compound 3 µM",4.37%
same,"viability, T/C","second compound 10 µM, first compound 0.00949 µM",6.5%
same,"viability, T/C","second compound 10 µM, first compound 0.03 µM",4.13%
same,"viability, T/C","second compound 10 µM, first compound 0.0949 µM",4.66%
same,"viability, T/C","second compound 10 µM, first compound 0.3 µM",4.52%
same,"viability, T/C","second compound 10 µM, first compound 0.949 µM",4.25%
same,"viability, T/C","second compound 10 µM, first compound 3 µM",4.89%
